What was measured:
[1] = tested on: ZEAMX: maize, corn (Zea mays); assay: Post-Emergent Test II herbicidal activity; format: in vivo; details: post-emergence, 336 h, 14 days, read-out: Visual Growth Reduction (%) 14 Days After Application ZEAMX; for pest or weed control at 35 g/ha: 35 g ai/ha; for pest or weed control at 70 g/ha: 70 g ai/ha; for pest or weed control at 140 g/ha: 140 g ai/ha
Summary of the method: (§1)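 Foliar application at 187 L/ha to greenhouse-grown seedlings (first/second true leaf), highest rate plus four serial halvings. Scoring: visual, 14 d after treatment, 0% no injury to 100% complete kill.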

[2] = tested on: BRSNN: oilseed rape, canola (Brassica napus); assay: Post-Emergent Test II herbicidal activity; format: in vivo; details: post-emergence, 336 h, 14 days, read-out: Visual Growth Reduction (%) 14 Days After Application BRSNN; for pest or weed control at 35 g/ha: 35 g ai/ha; for pest or weed control at 70 g/ha: 70 g ai/ha; for pest or weed control at 140 g/ha: 140 g ai/ha
Summary of the method: as §1

[3] = tested on: SETFA: giant foxtail (Setaria faberi); assay: Post-Emergent Test II herbicidal activity; format: in vivo; details: post-emergence, 336 h, 14 days, read-out: Visual Growth Reduction (%) 14 Days After Application SETFA; for pest or weed control at 35 g/ha: 35 g ai/ha; for pest or weed control at 70 g/ha: 70 g ai/ha; for pest or weed control at 140 g/ha: 140 g ai/ha
Summary of the method: as §1

[4] = tested on: TRZAS: wheat, spring (Triticum aestivum); assay: Post-Emergent Test II herbicidal activity; format: in vivo; details: post-emergence, 336 h, 14 days, read-out: Visual Growth Reduction (%) 14 Days After Application TRZAS; for pest or weed control at 35 g/ha: 35 g ai/ha; for pest or weed control at 70 g/ha: 70 g ai/ha; for pest or weed control at 140 g/ha: 140 g ai/ha
Summary of the method: as §1

[5] = tested on: CYPES: yellow nutsedge (Cyperus esculentus); assay: Post-Emergent Test II herbicidal activity; format: in vivo; details: post-emergence, 336 h, 14 days, read-out: Visual Growth Reduction (%) 14 Days After Application CYPES; for pest or weed control at 35 g/ha: 35 g ai/ha; for pest or weed control at 70 g/ha: 70 g ai/ha; for pest or weed control at 140 g/ha: 140 g ai/ha
Summary of the method: as §1

[6] = tested on: CHEAL: lambsquarters (Chenopodium album); assay: Post-Emergent Test II herbicidal activity; format: in vivo; details: post-emergence, 336 h, 14 days, read-out: Visual Growth Reduction (%) 14 Days After Application CHEAL; for pest or weed control at 35 g/ha: 35 g ai/ha; for pest or weed control at 70 g/ha: 70 g ai/ha; for pest or weed control at 140 g/ha: 140 g ai/ha
Summary of the method: as §1

[7] = tested on: ABUTH: velvetleaf (Abutilon theophrasti); assay: Post-Emergent Test II herbicidal activity; format: in vivo; details: post-emergence, 336 h, 14 days, read-out: Visual Growth Reduction (%) 14 Days After Application ABUTH; for pest or weed control at 35 g/ha: 35 g ai/ha; for pest or weed control at 70 g/ha: 70 g ai/ha; for pest or weed control at 140 g/ha: 140 g ai/ha
Summary of the method: as §1

[8] = tested on: EPHHL: wild poinsettia (Euphorbia heterophylla); assay: Post-Emergent Test II herbicidal activity; format: in vivo; details: post-emergence, 336 h, 14 days, read-out: Visual Growth Reduction (%) 14 Days After Application EPHHL; for pest or weed control at 35 g/ha: 35 g ai/ha; for pest or weed control at 70 g/ha: 70 g ai/ha; for pest or weed control at 140 g/ha: 140 g ai/ha
Summary of the method: as §1

[9] = tested on: HELAN: sunflower (Helianthus annuus); assay: Post-Emergent Test II herbicidal activity; format: in vivo; details: post-emergence, 336 h, 14 days, read-out: Visual Growth Reduction (%) 14 Days After Application HELAN; for pest or weed control at 35 g/ha: 35 g ai/ha; for pest or weed control at 70 g/ha: 70 g ai/ha; for pest or weed control at 140 g/ha: 140 g ai/ha
Summary of the method: as §1

[10] = tested on: ECHCG: barnyardgrass (Echinochloa crus-galli); assay: Post-Emergent Test II herbicidal activity; format: in vivo; details: post-emergence, 336 h, 14 days, read-out: Visual Growth Reduction (%) 14 Days After Application ECHCG; for pest or weed control at 35 g/ha: 35 g ai/ha; for pest or weed control at 70 g/ha: 70 g ai/ha; for pest or weed control at 140 g/ha: 140 g ai/ha
Summary of the method: as §1

[11] = tested on: ORYSA: rice (Oryza sativa); assay: Post-Emergent Test II herbicidal activity; format: in vivo; details: post-emergence, 336 h, 14 days, read-out: Visual Growth Reduction (%) 14 Days After Application ORYSA; for pest or weed control at 35 g/ha: 35 g ai/ha; for pest or weed control at 70 g/ha: 70 g ai/ha; for pest or weed control at 140 g/ha: 140 g ai/ha
Summary of the method: as §1

[12] = tested on: AMARE: redroot pigweed (Amaranthus retroflexus); assay: Post-Emergent Test II herbicidal activity; format: in vivo; details: post-emergence, 336 h, 14 days, read-out: Visual Growth Reduction (%) 14 Days After Application AMARE; for pest or weed control at 35 g/ha: 35 g ai/ha; for pest or weed control at 70 g/ha: 70 g ai/ha; for pest or weed control at 140 g/ha: 140 g ai/ha
Summary of the method: as §1

Row | Structure (SMILES) | pest or weed control at 35 g/ha [1] | pest or weed control at 70 g/ha [1] | pest or weed control at 140 g/ha [1] | pest or weed control at 35 g/ha [2] | pest or weed control at 70 g/ha [2] | pest or weed control at 140 g/ha [2] | pest or weed control at 35 g/ha [3] | pest or weed control at 70 g/ha [3] | pest or weed control at 140 g/ha [3] | pest or weed control at 35 g/ha [4] | pest or weed control at 70 g/ha [4] | pest or weed control at 140 g/ha [4] | pest or weed control at 35 g/ha [5] | pest or weed control at 70 g/ha [5] | pest or weed control at 140 g/ha [5] | pest or weed control at 35 g/ha [6] | pest or weed control at 70 g/ha [6] | pest or weed control at 140 g/ha [6] | pest or weed control at 35 g/ha [7] | pest or weed control at 70 g/ha [7] | other results
1 | COC(=O)c1nc(-c2cc3nonc3cc2F)c(F)c(N)c1Cl [Compound 3, Methyl 4-amino-3-chloro-5-fluoro-6-(6-fluorobenzo[c][1,2,5]oxadiazol-5-yl)picolinate] | 60 to 74% | 60 to 74% | 75 to 84% | 85 to 94% | 85 to 94% | 95 to 100% | 45 to 59% | 45 to 59% | 45 to 59% | 45 to 59% | 45 to 59% | 60 to 74% | 60 to 74% | 95 to 100% | 95 to 100% | 85 to 94% | 85 to 94% | 85 to 94% | 45 to 59% | 0 to 29% | pest or weed control at 140 g/ha [7]: 0 to 29%; pest or weed control at 35 g/ha [8]: 45 to 59%; pest or weed control at 70 g/ha [8]: 45 to 59%; pest or weed control at 140 g/ha [8]: 60 to 74%; pest or weed control at 35 g/ha [9]: 85 to 94%; pest or weed control at 70 g/ha [9]: 85 to 94%; pest or weed control at 140 g/ha [9]: 95 to 100%; pest or weed control at 35 g/ha [10]: 95 to 100%; pest or weed control at 70 g/ha [10]: 95 to 100%; pest or weed control at 140 g/ha [10]: 75 to 84%; pest or weed control at 35 g/ha [11]: 0 to 29%; pest or weed control at 70 g/ha [11]: 0 to 29%; pest or weed control at 140 g/ha [11]: 0 to 29%; pest or weed control at 35 g/ha [12]: 95 to 100%; pest or weed control at 70 g/ha [12]: 95 to 100%; pest or weed control at 140 g/ha [12]: 95 to 100%; melting point: 180 to 182 °C
2 | COC(=O)c1nc(-c2cc3nonc3cc2F)cc(N)c1Cl [Compound 4, Methyl 4-amino-3-chloro-6-(6-fluorobenzo[c][1,2,5]oxadiazol-5-yl)picolinate] | 85 to 94% | 85 to 94% | 85 to 94% | 85 to 94% | 95 to 100% | 95 to 100% | 60 to 74% | 60 to 74% | 60 to 74% | 60 to 74% | 75 to 84% | 75 to 84% | 95 to 100% | 95 to 100% | 95 to 100% | 85 to 94% | 95 to 100% | 95 to 100% | 85 to 94% | 95 to 100% | pest or weed control at 140 g/ha [7]: 95 to 100%; pest or weed control at 35 g/ha [8]: 95 to 100%; pest or weed control at 70 g/ha [8]: 95 to 100%; pest or weed control at 140 g/ha [8]: 95 to 100%; pest or weed control at 35 g/ha [9]: 85 to 94%; pest or weed control at 70 g/ha [9]: 85 to 94%; pest or weed control at 140 g/ha [9]: 85 to 94%; pest or weed control at 35 g/ha [10]: 85 to 94%; pest or weed control at 70 g/ha [10]: 95 to 100%; pest or weed control at 140 g/ha [10]: 85 to 94%; pest or weed control at 35 g/ha [11]: 0 to 29%; pest or weed control at 70 g/ha [11]: 0 to 29%; pest or weed control at 140 g/ha [11]: 30 to 44%; pest or weed control at 35 g/ha [12]: 95 to 100%; pest or weed control at 70 g/ha [12]: 95 to 100%; pest or weed control at 140 g/ha [12]: 95 to 100%; melting point: 199 to 201 °C
3 | COC(=O)c1nc(-c2cc3nonc3cc2Cl)cc(N)c1Cl [Compound 8] | 0 to 29% | 0 to 29% | 0 to 29% | 0 to 29% | 0 to 29% | 30 to 44% | 0 to 29% | 0 to 29% | 0 to 29% | 0 to 29% | 0 to 29% | 0 to 29% | 0 to 29% | 0 to 29% | 0 to 29% | 0 to 29% | 0 to 29% | 0 to 29% | 0 to 29% | 0 to 29% | pest or weed control at 140 g/ha [7]: 0 to 29%; pest or weed control at 35 g/ha [8]: 0 to 29%; pest or weed control at 70 g/ha [8]: 0 to 29%; pest or weed control at 140 g/ha [8]: 0 to 29%; pest or weed control at 35 g/ha [9]: 0 to 29%; pest or weed control at 70 g/ha [9]: 0 to 29%; pest or weed control at 140 g/ha [9]: 0 to 29%; pest or weed control at 35 g/ha [10]: 0 to 29%; pest or weed control at 70 g/ha [10]: 0 to 29%; pest or weed control at 140 g/ha [10]: 0 to 29%; pest or weed control at 35 g/ha [11]: 0 to 29%; pest or weed control at 70 g/ha [11]: 0 to 29%; pest or weed control at 140 g/ha [11]: 0 to 29%; pest or weed control at 35 g/ha [12]: 0 to 29%; pest or weed control at 70 g/ha [12]: 0 to 29%; pest or weed control at 140 g/ha [12]: 0 to 29%; melting point: 224 to 226 °C
